Read-outs that look alike come from different tables or passages of the source. One block for each compound: values may come before it.
Legend:
human sEH = biological target: T1, human sEH (Homo sapiens, UniProt P34913); experiment: Inhibition of recombinant human sEH, IC50 assay with 4-nitrophenyl-trans-2,3-epoxy-3-phenylpropyl carbonate as substrate; assay type: biochemical; conditions: for IC90: 0.24 μM enzyme
T1 construct: made in house; host or cells: baculovirus expression system
T1 sequence (P34913 1-555): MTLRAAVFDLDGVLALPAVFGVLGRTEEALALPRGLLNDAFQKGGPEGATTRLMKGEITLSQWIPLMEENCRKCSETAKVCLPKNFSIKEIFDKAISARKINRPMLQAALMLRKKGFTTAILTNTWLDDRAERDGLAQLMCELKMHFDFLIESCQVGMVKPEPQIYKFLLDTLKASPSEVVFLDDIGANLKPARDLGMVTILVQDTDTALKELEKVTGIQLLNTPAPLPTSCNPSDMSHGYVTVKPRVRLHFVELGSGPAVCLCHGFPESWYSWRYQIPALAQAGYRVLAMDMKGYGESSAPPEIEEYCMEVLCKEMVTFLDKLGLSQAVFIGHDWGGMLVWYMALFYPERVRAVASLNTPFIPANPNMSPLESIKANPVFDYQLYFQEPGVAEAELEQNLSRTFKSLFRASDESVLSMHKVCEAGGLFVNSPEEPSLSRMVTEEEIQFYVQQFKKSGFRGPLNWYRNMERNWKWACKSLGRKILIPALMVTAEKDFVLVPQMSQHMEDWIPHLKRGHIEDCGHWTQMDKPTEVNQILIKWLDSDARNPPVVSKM
Description: (§1) Assays were performed in triplicate. […] The curve was generated from at least three separate runs, each in triplicate, to obtain the standard deviation (SD) given in Table 1 thru Table 4.

mouse sEH = biological target: T2, mouse sEH (Mus musculus, UniProt P34914); experiment: Inhibition of recombinant mouse sEH, IC50 assay with 4-nitrophenyl-trans-2,3-epoxy-3-phenylpropyl carbonate as substrate; assay type: biochemical
T2 construct: made in house; host or cells: baculovirus expression system
T2 sequence (P34914 1-554): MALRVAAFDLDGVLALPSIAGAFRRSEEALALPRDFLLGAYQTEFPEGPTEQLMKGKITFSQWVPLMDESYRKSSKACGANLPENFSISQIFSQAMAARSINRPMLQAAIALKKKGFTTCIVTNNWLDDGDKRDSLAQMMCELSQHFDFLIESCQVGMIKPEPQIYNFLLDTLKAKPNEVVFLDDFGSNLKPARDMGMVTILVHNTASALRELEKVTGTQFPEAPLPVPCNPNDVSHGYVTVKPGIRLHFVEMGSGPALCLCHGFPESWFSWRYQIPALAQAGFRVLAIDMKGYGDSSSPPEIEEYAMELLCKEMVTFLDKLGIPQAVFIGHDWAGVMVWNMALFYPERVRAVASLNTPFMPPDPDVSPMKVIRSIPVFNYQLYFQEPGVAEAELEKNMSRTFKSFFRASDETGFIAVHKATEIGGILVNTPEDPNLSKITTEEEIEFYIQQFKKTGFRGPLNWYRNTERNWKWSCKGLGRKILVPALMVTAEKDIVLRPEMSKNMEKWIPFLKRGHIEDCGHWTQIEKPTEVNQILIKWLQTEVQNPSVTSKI
Description: as §1

[1] = Blood concentration after oral administration of 950 and AUDA-nBE, human pharmacokinetic profile; assay type: in vivo; conditions: FIG. 27; after oral 950
Description: FIG. 16 provides a sample preparation procedure for a pharmacokinetic study. A 5 μl whole blood sample was drawn into a capillary at a specific time point, each sample was extracted and anaylzed by LC/MS-MS. […] AUDA is the active metabolite of AUDA-nBE. […] 0.05 mg/kg. (B). 0.1 mg/kg. […] The compounds were administered at the same time in the same formulation. […] 21 mg (0.3 mg/kg) 950 and AUDA-nBE were orally administrated with starch. (B). 7 mg (0.1 mg/kg) formulated 950 and AUDA-NBE were taken with (HPMC, starch and lactose). (C). […] 950 with HPMC and Starch. (B). 950 in lactose and HPMC. […] HPMC forms a gel which slowly erodes; lactose enhances erosion at it moves through the gut and starch retards it. These formulations are combined, ball milled, and then placed in ‘0’ capsule and not compressed.

[2] = Table 4, […] enzyme, 5 min preincubation, pH 7.4, 30° C., means ± SD, read-out: IC50 (μM) Human sEH
[3] = Table 5, 5 min preincubation, pH 7.4, 30° C., means ± SD
[4] = Table 5, […] enzyme, 5 min preincubation, pH 7.4, 30° C., means ± SD, read-out: Human sEH IC50
[5] = Table 5, 0.12 μM enzyme, 5 min preincubation, pH 7.4, 30° C., means ± SD
[6] = Table 5, […] enzyme, 5 min preincubation, pH 7.4, 30° C., means ± SD, read-out: Mouse sEH IC50
[7] = Table 4, […] enzyme, 5 min preincubation, pH 7.4, 30° C., means ± SD, read-out: IC50 (μM) Mouse sEH
[8] = Tables 17a and b, read-out: IC50 (μM) Human sEH
[9] = Tables 17a and b, read-out: IC50 (μM) Mouse sEH
[10] = Table 9, established protocols, read-out: IC50 (μM) Human sEH
[11] = Table 9, established protocols, read-out: IC50 (μM) Mouse sEH

Structure (SMILES): CCOC(=O)CCCCOC(=O)CCCNC(=O)NC12CC3CC(CC(C3)C1)C2 [Compound 877]
IC90 (human sEH; [3]): 1500 ± 100 nM
IC50 (human sEH; [4]): 0.13 ± 0.01 µM
IC90 (mouse sEH; [5]): 100 ± 10 nM
IC50 (mouse sEH; [6]): 0.05 ± 0.01 µM

Structure (SMILES): O=C(CC1CCCCC1)NCCCc1ccccc1 [Compound 990]
IC50 (human sEH; [8]): 1.1 ± 0.01 µM
IC50 (mouse sEH; [9]): 0.73 ± 0.01 µM

Structure (SMILES): CC(C)=CCC/C(C)=C/COC1CCC(NC(=O)NC23CC4CC(CC(C4)C2)C3)CC1 (centres unmarked) [Compound 984]
IC50 (human sEH; [10]): 0.1 ± 0.01 µM
IC50 (mouse sEH; [11]): 0.05 ± 0.01 µM

Structure (SMILES): CCCCCNC(=O)CCCNC(=O)Nc1cccc(Cl)c1 [Compound 768, 1-(3-chlorophenyl)-3-(3-pentylaminocarbonylpropyl)urea]
IC50 (human sEH; Table 3, […] enzyme, 5 min preincubation, pH 7.4, 30° C., means ± SD, read-out: IC50 (μM) Human sEH): 32 ± 0.8 µM
IC50 (mouse sEH; Table 3, […] enzyme, 5 min preincubation, pH 7.4, 30° C., means ± SD, read-out: IC50 (μM) Mouse sEH): 7.2 ± 0.9 µM

Structure (SMILES): O=C(O)CCCCNC(=O)NC1CCCCC1 [Compound 884]
IC50 (human sEH; Table 1, […] enzyme, 5 min preincubation, pH 7.4, 30° C., [S] = 40 μM, means ± SD of three experiments, read-out: IC50 (μM) Human sEH): 2.4 ± 0.1 µM
IC50 (mouse sEH; Table 1, 0.12 μM enzyme, 5 min preincubation, pH 7.4, 30° C., [S] = 40 μM, means ± SD of three experiments, read-out: IC50 (μM) Mouse sEH): 0.25 ± 0.02 µM

Structure (SMILES): CCOC(=O)c1ccc(C(C#N)OC(=O)CCCNC(=O)NC23CC4CC(CC(C4)C2)C3)cc1 (centres unmarked) [Compound 947]
IC50 (human sEH; [8]): 0.11 ± 0.01 µM
IC50 (mouse sEH; [9]): 0.07 ± 0.01 µM

Structure (SMILES): CCCCCOC(=O)C1CCC(NC(=O)NC23CC4CC(CC(C4)C2)C3)CC1 (centres unmarked) [Compound 863]
IC50 (human sEH; [10]): 0.12 ± 0.01 µM
IC50 (mouse sEH; [11]): 0.05 ± 0.01 µM

Structure (SMILES): O=C(CC1CCCCC1)Nc1ccccc1 [Compound 964]
IC50 (human sEH; [8]): 16 ± 0.01 µM
IC50 (mouse sEH; [9]): 3.7 ± 0.01 µM

Structure (SMILES): CCCCC(C)OC(=O)CCCNC(=O)NC12CC3CC(CC(C3)C1)C2 (centres unmarked) [Compound 943]
IC50 (human sEH; [8]): 0.13 ± 0.01 µM
IC50 (mouse sEH; [9]): 0.05 ± 0.01 µM

Second part, the compound after the results:

IC50 (human sEH; [2]): 0.23 ± 0.02 µM
IC50 (mouse sEH; Table 4, 0.12 μM enzyme, 5 min preincubation, pH 7.4, 30° C., means ± SD, read-out: IC50 (μM) Mouse sEH): 0.07 ± 0.01 µM
Structure (SMILES): O=C(NCCCCCCCCCCCC(=O)OCC12CC3CC(CC(C3)C1)C2)NC12CC3CC(CC(C3)C1)C2 [Compound 786, 1-(1-adamantyl)-3-(11-(1-adamantyl)methyloxycarbonylundecyl)urea]

IC50 (human sEH; [2]): 0.1 ± 0.01 µM
IC50 (mouse sEH; [7]): 0.05 ± 0.01 µM
Structure (SMILES): CCNC(=O)CCCCCCCCCCCNC(=O)NC12CC3CC(CC(C3)C1)C2 [Compound 792, 1-(1-Adamantyl)-3-(11-ethylaminocarbonylundecyl)urea]

IC50 (human sEH; Table 7, established protocols, read-out: IC50 (μM) Human sEH): 0.13 ± 0.01 µM
IC50 (human sEH; [8]): 0.16 ± 0.01 µM
IC50 (mouse sEH; Table 7, established protocols, read-out: IC50 (μM) Mouse sEH): 0.05 ± 0.01 µM
IC50 (mouse sEH; [9]): 0.05 ± 0.01 µM
Structure (SMILES): O=C(NCCCCCOCCCCCOCC(F)(F)F)NC12CC3CC(CC(C3)C1)C2 [Compound 1004]

IC50 (human sEH; [10]): 0.1 ± 0.01 µM
IC50 (mouse sEH; [11]): 0.05 ± 0.01 µM
Structure (SMILES): CCCCCNC(=O)C1CCCC(NC(=O)NC23CC4CC(CC(C4)C2)C3)C1 (centres unmarked) [Compound 960]

IC50 (human sEH; [8]): 0.1 ± 0.01 µM
IC50 (mouse sEH; [9]): 0.07 ± 0.01 µM
Structure (SMILES): CS(=O)(=O)NCCCCCCCCCCCCNC(=O)NC12CC3CC(CC(C3)C1)C2 [Compound 901]

IC90 (human sEH; [3]): 810 ± 10 nM
IC50 (human sEH; [4]): 0.12 ± 0.01 µM
IC90 (mouse sEH; [5]): 130 ± 10 nM
IC50 (mouse sEH; [6]): 0.05 ± 0.01 µM
Structure (SMILES): CCOC(=O)CCCCCCOC(=O)CCCNC(=O)NC12CC3CC(CC(C3)C1)C2 [Compound 878]

detection in blood [1]: not detected at any time point
Structure (SMILES): CCCC(C)COCCCCCNC(=O)NC12CC3CC(CC(C3)C1)C2 (centres unmarked) [Compound 955]

IC50 (human sEH; [2]): 0.1 ± 0.01 µM
IC50 (mouse sEH; [7]): 0.05 ± 0.01 µM
Structure (SMILES): CCOC(=O)CCCCCCCCCCCNC(=O)NC12CC3CC(CC(C3)C1)C2 [Compound 784, 1-(1-Adamantyl)-3-(11-ethoxycarbonylundecyl)urea]

IC50 (human sEH; [8]): 0.44 ± 0.01 µM
IC50 (mouse sEH; [9]): 0.45 ± 0.01 µM
Structure (SMILES): O=C(NCCCCCCCCCCCCN[S+]([O-])NC12CC3CC(CC(C3)C1)C2)NC12CC3CC(CC(C3)C1)C2 (centres unmarked) [Compound 902]

Reference: patent US20050164951A1, “Inhibitors for the soluble epoxide hydrolase” (The Regents of the University of California, priority 2003, published 2005)
